Experimental data taken from PubChem BioAssay AID1918943 (Molecular Pharmacology Branch, DTP, NCI, 2023).
Several values for one entry are separate records, joined by “and”; a condition that tells them apart may be missing. Identical values can stand only once.

Test system: 855422-203-R-J1-PDC complex spheroid viability
Test: Anticancer human tumor 855422-203-R-J1-PDC patient-derived bladder carcinoma cell line growth inhibition
Conditions: for viability, T/C: stronger effect = lower value
In short: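 Multicellular complex spheroids of tumor cells with human endothelial cells (HUVEC) and mesenchymal stem cells; the LSD1 inhibitor iadademstat was combined with standard-of-care or investigational agents. Top concentration at or near clinical Cmax, half-log dilutions; final DMSO ≤0.25%.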

[1] = curve of first compound, second compound 0.1 µM
[2] = curve of first compound, second compound 0.316 µM
[3] = curve of first compound, second compound 1 µM
[4] = curve of first compound, second compound 3.16 µM
[5] = curve of first compound, second compound 10 µM
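Further: drug exposure lasted 7 days starting on day 3 after seeding.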
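Wherever viability, T/C is given: luminescence viability as percent of DMSO vehicle wells = 100%.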

CC1(C)CCC(CN2CCN(c3ccc(C(=O)NS(=O)(=O)c4ccc(NCC5CCOCC5)c([N+](=O)[O-])c4)c(Oc4cnc5[nH]ccc5c4)c3)CC2)=C(c2ccc(Cl)cc2)C1
viability, T/C (compound 0.0316 µM): 102% and 97.3%
viability, T/C (compound 0.1 µM): 105% and 94.6%
viability, T/C (compound 0.316 µM): 104% and 110%
viability, T/C (compound 1 µM): 103% and 107%
viability, T/C (compound 3.16 µM): 80.6% and 83.9%
viability, T/C (compound 10 µM): 17.9% and 15.2%
IC50 (curve of compound): 5550 nM and 5570 nM

COc1cc(Nc2ncc3c(n2)-c2ccc(Cl)cc2C(c2c(F)cccc2OC)=NC3)ccc1C(=O)O + NC1CC1c1ccc(-c2cccc(O)c2)cc1
IC50 [1]: 670 nM
IC50 [2]: 284 nM
IC50 [3]: 89.7 nM
IC50 [4]: 275 nM
IC50 [5]: 135 nM
viability, T/C (second compound 0.1 µM, first compound 0.00316 µM): 96.4%
viability, T/C (second compound 0.1 µM, first compound 0.01 µM): 103%
viability, T/C (second compound 0.1 µM, first compound 0.0316 µM): 84%
viability, T/C (second compound 0.1 µM, first compound 0.1 µM): 68.6%
viability, T/C (second compound 0.1 µM, first compound 0.316 µM): 56.2%
viability, T/C (second compound 0.1 µM, first compound 1 µM): 46.5%
viability, T/C (second compound 0.316 µM, first compound 0.00316 µM): 96.9%
viability, T/C (second compound 0.316 µM, first compound 0.01 µM): 96.4%
viability, T/C (second compound 0.316 µM, first compound 0.0316 µM): 71%
viability, T/C (second compound 0.316 µM, first compound 0.1 µM): 61.2%
viability, T/C (second compound 0.316 µM, first compound 0.316 µM): 49.9%
viability, T/C (second compound 0.316 µM, first compound 1 µM): 44.4%
viability, T/C (second compound 1 µM, first compound 0.00316 µM): 82.5%
viability, T/C (second compound 1 µM, first compound 0.01 µM): 93.4%
viability, T/C (second compound 1 µM, first compound 0.0316 µM): 69.5%
viability, T/C (second compound 1 µM, first compound 0.1 µM): 51.8%
viability, T/C (second compound 1 µM, first compound 0.316 µM): 45.8%
viability, T/C (second compound 1 µM, first compound 1 µM): 46.1%
viability, T/C (second compound 3.16 µM, first compound 0.00316 µM): 88.3%
viability, T/C (second compound 3.16 µM, first compound 0.01 µM): 95.5%
viability, T/C (second compound 3.16 µM, first compound 0.0316 µM): 69.9%
viability, T/C (second compound 3.16 µM, first compound 0.1 µM): 61.4%
viability, T/C (second compound 3.16 µM, first compound 0.316 µM): 50%
viability, T/C (second compound 3.16 µM, first compound 1 µM): 43.4%
viability, T/C (second compound 10 µM, first compound 0.00316 µM): 85.7%
viability, T/C (second compound 10 µM, first compound 0.01 µM): 94.1%
viability, T/C (second compound 10 µM, first compound 0.0316 µM): 63.1%
viability, T/C (second compound 10 µM, first compound 0.1 µM): 56.8%
viability, T/C (second compound 10 µM, first compound 0.316 µM): 44.2%
viability, T/C (second compound 10 µM, first compound 1 µM): 39.5%

CC1COCCN1c1cc(-c2ccnn2C)c2ccnc(-c3ccn[nH]3)c2n1 (centres undefined)
viability, T/C (compound 0.00316 µM): 98.3% and 96.7%
viability, T/C (compound 0.01 µM): 90.6% and 99.5%
viability, T/C (compound 0.0316 µM): 90.2% and 105%
viability, T/C (compound 0.1 µM): 46% and 48.9%
viability, T/C (compound 0.316 µM): 32.3% and 26%
viability, T/C (compound 1 µM): 25.3% and 22.9%
IC50 (curve of compound): 91 nM and 97.7 nM

NS(=O)(=O)OCC1CC(n2ccc3c(NC4CCc5ccccc54)ncnc32)CC1O (centres undefined) + NC1CC1c1ccc(-c2cccc(O)c2)cc1
IC50 [1]: 802 nM
IC50 [2]: 848 nM
IC50 [3]: 1140 nM
IC50 [4]: 769 nM
IC50 [5]: 532 nM
viability, T/C (second compound 0.1 µM, first compound 0.00949 µM): 102%
viability, T/C (second compound 0.1 µM, first compound 0.03 µM): 112%
viability, T/C (second compound 0.1 µM, first compound 0.0949 µM): 115%
viability, T/C (second compound 0.1 µM, first compound 0.3 µM): 105%
viability, T/C (second compound 0.1 µM, first compound 0.949 µM): 40.5%
viability, T/C (second compound 0.1 µM, first compound 3 µM): 12.2%
viability, T/C (second compound 0.316 µM, first compound 0.00949 µM): 100%
viability, T/C (second compound 0.316 µM, first compound 0.03 µM): 113%
viability, T/C (second compound 0.316 µM, first compound 0.0949 µM): 114%
viability, T/C (second compound 0.316 µM, first compound 0.3 µM): 105%
viability, T/C (second compound 0.316 µM, first compound 0.949 µM): 44.1%
viability, T/C (second compound 0.316 µM, first compound 3 µM): 13.4%
viability, T/C (second compound 1 µM, first compound 0.00949 µM): 108%
viability, T/C (second compound 1 µM, first compound 0.03 µM): 115%
viability, T/C (second compound 1 µM, first compound 0.0949 µM): 98.7%
viability, T/C (second compound 1 µM, first compound 0.3 µM): 102%
viability, T/C (second compound 1 µM, first compound 0.949 µM): 56.8%
viability, T/C (second compound 1 µM, first compound 3 µM): 13.9%
viability, T/C (second compound 3.16 µM, first compound 0.00949 µM): 99.7%
viability, T/C (second compound 3.16 µM, first compound 0.03 µM): 114%
viability, T/C (second compound 3.16 µM, first compound 0.0949 µM): 102%
viability, T/C (second compound 3.16 µM, first compound 0.3 µM): 105%
viability, T/C (second compound 3.16 µM, first compound 0.949 µM): 37.7%
viability, T/C (second compound 3.16 µM, first compound 3 µM): 14.1%
viability, T/C (second compound 10 µM, first compound 0.00949 µM): 95.4%
viability, T/C (second compound 10 µM, first compound 0.03 µM): 99.5%
viability, T/C (second compound 10 µM, first compound 0.0949 µM): 93.8%
viability, T/C (second compound 10 µM, first compound 0.3 µM): 69%
viability, T/C (second compound 10 µM, first compound 0.949 µM): 30.5%
viability, T/C (second compound 10 µM, first compound 3 µM): 10.9%
